Values belong to the compound of their own block, whether it stands above or below them.
Key:
[1] = test system: ASK1; assay: Association of Trx with ASK1 in vivo in BAEC (co-immunoprecipitation); format: binding, Bovine; conditions: endogenous proteins, IP anti-Trx / Western anti-ASK1; Nac pretreatment then TNF
Description: Immunoprecipitation and immunoblotting EC after various treatments were washed twice with cold PBS and lysed in 1.5 ml of cold lysis buffer (50 mM Tris-HC, pH 7.6, 150 mM NaCl, 0.1% Triton X-100, 0.75% Brij 96, 10 μg/ml aprotinin, 10 μg/ml leupeptin, 2 mM PMSF, 1 mM EDTA) for 20 min on ice. Protein concentrations were determined with a Bio-Rad kit. For immunoprecipitation to analyze protein interaction in vivo, 400 μg of cell lysate supematant were incubated with 5 μg of the first protein-specific antiserum (e.g. anti-Trx from Medical & Biological Laboratory) for 2 h with 50 μl of GammaBind plus Sepharose. Immune complexes were collected after each immunoprecipitation by centrifugation at 14,000× g for 10 min followed by 4 washes with lysis buffer. The immune complexes were subjected to Western blot with the second protein (e.g., ASK1)-specific antibody (Santa Cruz Biotech, Santa Cruz, Calif.). The chemiluminescence was detected using an ECL kit according to the instructions of the manufacturer (Amersham Life Science, Arlington Heights, Ill.). […]
TNF dissociates wild type Trx but not Trx-C32S or Trx-C35Sfroin ASK1 in vivo. […] TNF-induced ASK1 activation was measured by an in vitro kinase assay using GST-MKK4 (JNKK1) fusion protein as a substrate. […] Association of ASK1 with Trx was easily detected in untreated EC cells (FIG. 5B, Ctrl). […]

[2] = test system: ASK1; assay: TNF-induced ASK1 activation in BAEC, in vitro kinase assay with GST-MKK4; format: cell-based, Bovine; conditions: Nac 1 mM pretreatment, TNF-α 10 ng/ml 15 min; n=3, p<0.01
Description: J Immunol. 159:3508-18 (1997)) using GST-MKK4 and GST-c-Jun (1-80) fusion protein as a substrate, respectively. Briefly, total 400 μg cell lysates were immunoprecipitated with 5 μg of antibody against ASK1 or JNK1 (Santa Cruz). The immunoprecipitates were mixed with 10 μg GST-MKK4 or GST-c-Jun (1-80) suspended in the kinase buffer (20 mM Hepes, pH 7.6, 20 mM MgCl2, 25 mM β-glycerophosphate, 100 μM sodium orthovanadate, 2 mM DTT, 20 μM ATP) containing 1 μl (10 μCi) of [γ-32P] ATP. The kinase assay was performed at 25° C. for 30 min. The reaction was terminated by the addition of Laemmli sample buffer and the phosphorylated GST-MKK4 or GST-c-Jun (1-80) was visualized by autoradiography.
TNF dissociates wild type Trx but not Trx-C32S or Trx-C35Sfroin ASK1 in vivo. Trx-C32S and Trx-C35S were examiner to determine whether they constitutively bind to ASK1 in vivo. Regulation of ASK1 by Trx was first examined to determine if such regulation is ROS-dependent in EC. BAEC were either untreated or treated with N-acetyl-cysteine (Nac, 1 mM) or vehicle for 60 min prior to TNF-α (10 ng/ml) stimulation for 15 min. TNF-induced ASK1 activation was measured by an in vitro kinase assay using GST-MKK4 (JNKK1) fusion protein as a substrate. TNF activated ASK1 in EC (FIG. 5A). […] Association of ASK1 with Trx was easily detected in untreated EC cells (FIG. 5B, Ctrl). […]

[3] = test system: adult rat cardiomyocytes; assay: Twitch amplitude of field-stimulated adult rat cardiac myocytes; conditions: 100 μM H2O2, field stimulated at 1 Hz, n=15
[4] = test system: neonatal rat cardiomyocytes; conditions: 100 μM H2O2, 15 min post-treatment
[5] = test system: caspase 3; assay: ASK1-induced caspase 3 activity assay in BAEC (Ac-DEVD-AMC substrate); format: cell-based, Bovine; conditions: 100 μM inhibitor in lysate assay
Description: Caspase 3 activity assay: Caspase 3 activity was measured with a Caspase 3 fluorescence kit (Sigma) according to the Manufacturer's protocol. Briefly, BAEC were harvested in Caspase 3 lysis buffer (25 mM Hepes, pH 7.4, 5 mM CHAPS, 5 mM DTT) and incubated on ice for 15-20 min followed by a centrifugation at 14,000× g for 10-15 min at 4° C. For each reaction, 5 μl (200 μg) of cell lysate was incubated with 200 μl of 16 μM Caspase 3 peptide substrate acetyl-ASP-Glu-Val-Asp-7 amido-4-methylcoumarin (Ac-DEVD-AMC) in the assay buffer (25 mM Hepes, pH 7.4, 5 mM EDTA, 0.1% CHAPS, 5 mM DTT) in the presence or absence of 100 μM Caspase 3 inhibitor (Ac-DEVD-CHO). The reaction was incubated in the dark for 1-1.5 h and fluorescence was measured in a fluorescence plate reader. The measured fluorescence was used as an arbitrary unit.
Then the effects. of Trx on ASK1-induced caspase 3 activation, a hallmark of the execution of apoptotic cell death (Green D R. Apoptotic pathways: paper wraps stone blunts scissors. Cell. 102:1-4 (2000); Hengartner MO. The biochemistry of apoptosis. Nature. 407:770-6 2000)) was examined. Caspase 3 activity was determined by an in vitro assay using peptide substrate acetyl-ASP-Glu-Val-Asp-7 amido-4-methylcounarin (Ac-DEVD-AMC). Overexpression of ASK1 in BAEC increased caspase 3 activity compared to the control cells (FIG. 6B).

Compound: CC(=O)N[C@@H](CS)C(=O)O [Nac, N-acetyl-cysteine, reference compound]
- TNF-induced dissociation of ASK1 from Trx [1]: prevented
- inhibition of TNF-stimulated ASK1 activity [2]: 70%

Compound: OO [Trx H2O2, Hydrogen peroxide]
- time to complete inhibition of twitch [3]: 2.38 ± 018 min
- spontaneous beating of neonatal cardiomyocytes [4]: completely inhibited

- caspase 3 activity in presence of caspase 3 inhibitor [5]: specifically inhibited
Compound: Ac-DEVD-CHO [reference compound]

Source: patent publication US20060148057A1, “Thioredoxin mutants and uses thereof” (priority 2002, published 2006)
